Results taken from patent publication US9649313B2, “Use of ITK inhibitors for the treatment of cancer” (The University of North Carolina at Chapel Hill, priority 2012, dated 2017).

Tests used:
[1] = test system: SKMEL 131 (ITKLO) melanoma cell line; assay: proliferation assay (cell counts); type: cell-based, Human; details: inhibitor as high as 150 nM
Description: (§1) FIG. 5A-5C. Effects of BI 10N inhibitor on proliferation and motility of melanoma cells. FIG. 5A) Cell motility assays were performed as described in FIG. 4A-4E; however, the inhibitor BI 10N was added to the media to decrease ITK kinase activity in parental cell lines instead of using the shRNA ITK knockdown cell lines. BI 10N was added to the media 24 hours prior to the start of the motility assay and the VivaView camera system was used to image cellular motility of the melanoma cells as described previously. FIG. 5B) The proliferation assays were completed as described in FIG. 4A-4E, substituting the BI 10N compound for the shRNA. Cells were trypsinized and counted using the Invitrogen Countess. Fifty thousand cells were placed into each well of a 6 well plate and BI 10N was added to the indicated concentrations. The cells were counted with the Invitrogen Countess at 3, 5, and 6 or 7 days after plating to assess the proliferation rates of the different cell lines in the presence of BI 10N. FIG. 5C) Both ITKHI (RPMI 8322) and ITKLO (PMWK) melanoma cell lines were grown in the presence of BI 10N (10-200 nM) in soft agar. In 24-well cell culture plates 2,500 cells per well were added to a 1.4% agarose solution. The agarose and cell solution was then poured on top of a solidified base agar. The cells were incubated at 37° C. for three to four weeks to ensure adequate growth before analysis. FIG. 5D) Cell cycle analysis of PMWK, VMM 39, and RPMI 8322 cells that have been treated with increasing concentrations of BI 10N. Following 3 days of BI 10N treatment, the cells were incubated with EdU for 3 hours and were subsequently assessed for 5-ethynyl-2′-deoxyuridine (EdU) incorporation rate and DNA content with FxCycle Violet. […]
(§2) Human melanoma cell lines were plated onto 10 cm^2 6 well dishes at a density of 50,000 cells per well. […] Five hundred […] of media was added to the cell suspension, the cells were removed from the well and then counted using the Countess® Automated Cell Counter from Life Technologies (cat #C10227). […]

[2] = test system: SKMEL 153 (ITKHI) melanoma cell line; assay: proliferation assay (cell counts); type: cell-based, Human; details: 50 nM
Description: as §1, §2

[3] = test system: A375 (ITKINT) melanoma cell line; assay: proliferation assay (cell counts); type: cell-based, Human; details: 50 nM
Description: as §1, §2

[4] = target: T1, phosphorylated (active) form of ITK in RPMI 8322 cells (Homo sapiens, UniProt Q08881); assay: two-dimensional electrophoresis and western blot of ITK isoforms; type: cell-based; details: RPMI 8322 cells treated for 3 days
T1 construct: endogenous in cells; host or cells: RPMI 8322 human melanoma cells
Description: Therefore, alternatively, we performed two-dimensional electrophoresis on whole cell lysates obtained from RPMI 8322 cells that had been treated with phosphatase or different concentrations of BI 10N for 3 days prior to harvest followed by western blot analysis using the ITK antibody. In untreated RPMI 8322 cells, two charge isoforms that migrated with the appropriate weight for ITK were identified by immunoblot analysis. […] These observations indicate that the formation of the phosphorylated (active) form of ITK is inhibited in the presence of ≧25 nM of BI 10N (data not shown).

[5] = test system: primary melanoma in the PTEN/BRAF GEMM; assay: PTEN/BRAF GEMM primary melanoma model; type: in vivo, mice
Description: FIG. 7A-7B Effects of BI 10N inhibitor on growth of primary melanoma in the PTEN/BRAF GEMM. A primary melanoma tumor from the PTEN/BRAF mouse GEMM untreated with inhibitors stained with acid fast red for ITK using ITK antibody (Abeam cat#ab32113) (data not shown). A PTEN/BRAF mouse model was used for these in vivo studies. The mice were painted with 4HT (4-hydroxy-tamoxifen) at the base of their tails and within about 4 weeks, 4 mm×4 mm melanomas were typically present in each mouse. The animals were then divided into treatment or no treatment groups. FIG. 7A) Animals were treated as described in panel B, then placed on BI 10N BI 10N at 15 MPK or not treated. Mice were followed for 7 weeks and their tumors were measured once a week to assess tumor volume as described in the Materials and Methods. FIG. 7B) Effect of BI 10N on tumor growth (mean and standard error of mean) in the PTEN/BRAF GEMM. […] The effects of AZD6244 and PLX4032 on tumor growth are also shown. Samples sizes are indicated in parentheses.
All animal studies were approved by UNC-CH Institute for Animal Care and Use Committee prior to study start. PTEN/BRAF mice were bred in house, and tumors were induced with 1 ul of 20 mM Tamoxafen at 4 weeks near the base of the tail as previously described (Dankort et al., 2009 Nat Genet 41(5): 544-52). […]

[6] = Riether et al., 2009; cited from earlier work
[7] = test system: ERK and AKT activation status in RPMI 8322 cells; assay: western blot of ERK and AKT activation; type: cell-based, Human; details: concentrations as high as 50 nM, 3 days
Description: (§3) FIG. 9. Western blots of phospho-ERK and phospho-AKT.
(§4) To investigate the impact of ITK inhibition by BI 10N on the ERK and AKT signaling pathways, which are frequently misregulated in melanoma, the ITKHI melanoma cell lines (VMM 39 and RPMI 8322) were grown in the presence of increasing BI 10N concentrations. Western blot analysis was performed on whole cell lysates from these cells using antibodies against ERK, pERK^Thr202/Tyr204, AKT, and pAKT^Ser473.

[8] = test system: ERK and AKT activation status in VMM 39 cells; assay: western blot of ERK and AKT activation; type: cell-based, Human; details: concentrations as high as 50 nM, 3 days
Description: as §3, §4

[9] = test system: cytokine production; details: anti-CD3 antibody stimulated Balb/c mice; Riether et al., 2009; cited from earlier work

T1 sequence (Q08881 whole entry, canonical isoform): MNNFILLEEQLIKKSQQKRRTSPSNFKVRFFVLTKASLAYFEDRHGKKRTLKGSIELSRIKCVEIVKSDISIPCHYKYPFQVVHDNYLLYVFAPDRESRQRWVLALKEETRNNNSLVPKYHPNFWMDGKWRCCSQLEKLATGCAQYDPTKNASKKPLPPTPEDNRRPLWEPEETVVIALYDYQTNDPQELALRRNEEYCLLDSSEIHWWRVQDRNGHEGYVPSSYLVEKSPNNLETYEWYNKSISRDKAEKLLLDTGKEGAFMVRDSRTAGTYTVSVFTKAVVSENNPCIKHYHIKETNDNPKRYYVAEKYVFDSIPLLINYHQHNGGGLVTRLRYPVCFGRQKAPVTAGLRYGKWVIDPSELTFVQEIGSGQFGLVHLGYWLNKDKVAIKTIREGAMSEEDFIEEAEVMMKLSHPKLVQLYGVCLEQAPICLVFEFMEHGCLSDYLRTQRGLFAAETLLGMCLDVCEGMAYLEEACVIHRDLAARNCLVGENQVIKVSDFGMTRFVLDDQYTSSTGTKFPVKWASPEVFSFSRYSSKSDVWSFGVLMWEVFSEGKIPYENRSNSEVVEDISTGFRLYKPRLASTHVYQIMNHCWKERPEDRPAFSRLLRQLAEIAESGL

In the case of `CC(C)C(C)CNCc1ccc2c(c1)[nH]/c(=N\C(=O)c1ccc(C3=CN=NC3)s1)n2CC(C)(C)O` (stereo not shown) [BI 10N], the “effect on doubling time” value [1] is reported as “did not increase their doubling time”, the “increase in doubling time” value [2] is reported as “about 50%” and the effect on proliferation [3] is reported as “decreased similarly to the ITKHI cell lines”. The “concentration at which formation of the phosphorylated (active) form of ITK is inhibited” value [4] was no less than 25 nM, the “tumor growth compared with AZD6244 and PLX4032” value ([5]; PTEN/BRAF GEMM, FIG. 7B) was “performs better in vivo than MEK inhibitor AZD6244 (selumentinib) and V600E BRAF inhibitor PLX4032 (vemurafenib)” and the progression of tumors ([5]; PTEN/BRAF mice, 15 mg per kg, compared to the no treatment group) was “profoundly retarded the progression of tumors”. For the same compound, the “F value (bioavailable in mice)” value [6] was 21%, the “activation status of ERK and AKT” value [7] was “No significant effects” and the “activation status of ERK and AKT” value [8] was “No significant effects”. The “cytokine production in vivo” value [9] was “decrease cytokine production”.
